Results taken from patent publication US6737383B1, “Herbicidal oxadiazolidines” (priority 1999, dated 2004).

Tests used:
[1] = tested on: maize hybrid P33G26; test: Test G maize injury with safener-treated seed; conditions: in vivo
Experimental: In soil-containing pots were planted seeds of maize hybrid P33G26 that was previously treated with dichlomid, fenchlorazole-ethyl, and naphthalic anhydride (or no safener). The soil surface was then treated with several rates of Compound 131 or Compound 146 dissolved in a non-phytotoxic solvent using a flat-fan sprayer calibrated to deliver 310 L/ha. Treatmemtes were replicated 4 or 5 times. The treated and untreated plants were allowed to grow in a greenhouse using supplementary artificial lighting with a day-length of 14 hours, with the temperature maintained at about 27° C. during the day and 24° C. during the night. Plants were kept watered with a dilute balanced fertilizer solution.
At 28 days after application, the treated plants were compared with untreated controls and vissually evaluated.

[2] = tested on: corn; test: Test B pre/postemergence corn; type: in vivo, Zea mays
How it was run: (§1)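 Response is a visual 0-to-10 score relative to untreated plants, where 0 means no effect and 10 means complete control, taken twelve to sixteen days after application. Treatments went onto soil at planting and onto foliage of 1- to 4-leaf plants, using a surfactant-containing non-phytotoxic solvent.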

[3] = tested on: rape; test: Test B pre/postemergence rape; type: in vivo, Brassica napus
How it was run: as §1

[4] = tested on: morningglory; test: Test B pre/postemergence morningglory; type: in vivo, Ipomoea hederacea
How it was run: as §1

[5] = tested on: blackgrass; test: Test B pre/postemergence blackgrass; type: in vivo, Alopecurus myosuroides
How it was run: as §1

[6] = tested on: purple nutsedge; test: Test B pre/postemergence purple nutsedge; type: in vivo, Cyperus rotundus
How it was run: as §1

[7] = tested on: pigweed; test: Test B pre/postemergence pigweed; type: in vivo, Amaranthus retroflexus
How it was run: as §1

[8] = tested on: velvetleaf; test: Test B pre/postemergence velvetleaf; type: in vivo, Abutilon theophrasti; conditions: Preemergence
How it was run: as §1

[9] = tested on: bedstraw; test: Test B pre/postemergence bedstraw; type: in vivo, Galium aparine
How it was run: as §1

[10] = tested on: smallflower flatsedge; test: Test B flood test smallflower flatsedge; type: in vivo, Cyperus difformis
How it was run: (§2)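 Read-out is a visual response score from 0 (no effect) to 10 (complete control), assigned by comparison with untreated controls. Treatment was applied at the 2-leaf stage, and plants stayed in the greenhouse for twelve to sixteen days before scoring.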

[11] = tested on: crabgrass; test: Test B pre/postemergence crabgrass; type: in vivo, Digitaria sanguinalis
How it was run: as §1

[12] = tested on: wheat; test: Test B pre/postemergence wheat; type: in vivo, Triticum aestivum; conditions: Preemergence
How it was run: as §1

[13] = tested on: wild oat; test: Test B pre/postemergence wild oat; type: in vivo, Avena fatua; conditions: Preemergence
How it was run: as §1

[14] = tested on: giant foxtail; test: Test B pre/postemergence giant foxtail; type: in vivo, Setaria faberii
How it was run: as §1

[15] = tested on: cocklebur; test: Test B pre/postemergence cocklebur; type: in vivo, Xanthium strumarium
How it was run: as §1

[16] = tested on: sugar beet; test: Test B pre/postemergence sugar beet; type: in vivo, Beta vulgaris; conditions: Preemergence
How it was run: as §1

[17] = tested on: bamyardgrass; test: Test B flood test barnyardgrass; type: in vivo, Echinochloa crus-galli
How it was run: as §2

[18] = tested on: rice; test: Test B flood test rice; type: in vivo, Oryza sativa
How it was run: as §2

[19] = tested on: surinam grass; test: Test B pre/postemergence surinam grass; type: in vivo, Brachiaria decumbens
How it was run: as §1

[20] = tested on: duck salad; test: Test B flood test duck salad; type: in vivo, Heteranthera limosa
How it was run: as §2

[21] = tested on: soybean; test: Test B pre/postemergence soybean; type: in vivo, Glycine max; conditions: Preemergence
How it was run: as §1

[22] = Preemergence, Rate 31 g/ha, visual rating, scale 0 to 10 (0 no effect, 10 complete control)
[23] = Preemergence, Rate 62 g/ha, scale of 0 to 10 where 0 is no effect and 10 is complete control
[24] = Preemergence, Rate 250 g/ha, scale of 0 to 10 where 0 is no effect and 10 is complete control
[25] = Rate 31 g/ha, Postemergence, scale 0 to 10
[26] = Rate 62 g/ha, Postemergence, scale of 0 to 10 where 0 is no effect and 10 is complete control
[27] = Rate 125 g/ha, Postemergence, scale 0 to 10
[28] = Rate 125 g/ha, Preemergence, scale of 0 to 10 where 0 is no effect and 10 is complete control
[29] = Rate 31 g/ha, visual rating, scale 0 to 10 (0 no effect, 10 complete control)
[30] = Rate 62 g/ha, scale of 0 to 10 where 0 is no effect and 10 is complete control
[31] = Rate 250 g/ha, scale of 0 to 10 where 0 is no effect and 10 is complete control
[32] = Rate 125 g/ha, scale of 0 to 10 where 0 is no effect and 10 is complete control
[33] = Rate 62 g/ha, headed Pre-emergence (flood test species), scale 0 to 10 (0 no effect, 10 complete control)
[34] = Rate 125 g/ha, Pre-emergence, flood test species, scale 0 to 10 where 0 is no effect and 10 is complete control
[35] = Rate 250 g/ha, Pre-emergence, flood-test species, scale 0 to 10, 0 is no effect, 10 is complete control
[36] = Rate 500 g/ha, Pre-emergence, flood test species, scale 0 to 10 (0 no effect, 10 complete control)

O=C1OC(=O)c2cccc3cccc1c23 [naphthalic anhydride, reference compound]
Effect of safener seed treatment on corn germination [1]: severely inhibited corn germination
Safening effect on maize injury [1]: safened against the herbicide damage

CCN(CC)C(=O)Cn1c(=O)on(C(=O)N(c2ccc(F)cc2)C(C)C)c1=O [Compound 264]
Corn plant response rating [2, 22]: 0
Corn plant response rating [2, 23]: 0
Corn plant response rating [2, 24]: 0
Corn plant response rating [2, 25]: 0
Corn plant response rating [2, 26]: 0
Corn plant response rating [2, 27]: 0
Corn plant response rating [2, 28]: 0
Plant response rating (0 to 10; 0 is no effect, 10 is complete control), Corn ([2]; Rate 250 g/ha, Postemergence): 0
Rape plant response rating [3, 22]: 0
Rape plant response rating [3, 23]: 0
Rape plant response rating [3, 24]: 0
Rape plant response rating [3, 25]: 0
Rape plant response rating [3, 28]: 0
Plant response rating (0 to 10; 0 is no effect, 10 is complete control), Rape ([3]; Rate 250 g/ha, Postemergence): 0
Morningglory plant response rating [4, 22]: 0
Morningglory plant response rating [4, 23]: 0
Morningglory plant response rating [4, 24]: 0
Morningglory plant response rating [4, 25]: 6
Morningglory plant response rating [4, 28]: 0
Plant response rating (0 to 10; 0 is no effect, 10 is complete control), Morningglory ([4]; Rate 250 g/ha, Postemergence): 10
Blackgrass plant response rating [5, 22]: 0
Blackgrass plant response rating [5, 23]: 0
Blackgrass plant response rating [5, 24]: 4
Blackgrass plant response rating [5, 25]: 0
Blackgrass plant response rating [5, 26]: 2
Blackgrass plant response rating [5, 27]: 2
Blackgrass plant response rating [5, 28]: 0
Plant response rating (0 to 10; 0 is no effect, 10 is complete control), Blackgrass ([5]; Rate 250 g/ha, Postemergence): 3
Nutsedge plant response rating [6, 22]: 0
Nutsedge plant response rating [6, 24]: 0
Nutsedge plant response rating [6, 25]: 0
Plant response rating (0 to 10; 0 is no effect, 10 is complete control), Nutsedge ([6]; Rate 250 g/ha, Postemergence): 0
Redroot pigweed plant response rating [7, 22]: 0
Redroot pigweed plant response rating [7, 23]: 0
Redroot pigweed plant response rating [7, 24]: 0
Redroot pigweed plant response rating [7, 25]: 0
Redroot pigweed plant response rating [7, 28]: 0
Plant response rating (0 to 10; 0 is no effect, 10 is complete control), Redroot pigweed ([7]; Rate 250 g/ha, Postemergence): 0
Velvetleaf plant response rating [8, 29]: 0
Velvetleaf plant response rating [8, 30]: 0
Velvetleaf plant response rating [8, 31]: 0
Velvetleaf plant response rating [8, 32]: 0
Bedstraw plant response rating [9, 22]: 0
Bedstraw plant response rating [9, 23]: 0
Bedstraw plant response rating [9, 24]: 0
Bedstraw plant response rating [9, 25]: 0
Bedstraw plant response rating [9, 26]: 0
Bedstraw plant response rating [9, 27]: 6
Bedstraw plant response rating [9, 28]: 0
Plant response rating (0 to 10; 0 is no effect, 10 is complete control), Bedstraw ([9]; Rate 250 g/ha, Postemergence): 6
S. Flatsedge plant response rating [10, 33]: 0
S. Flatsedge plant response rating [10, 34]: 0
S. Flatsedge plant response rating [10, 35]: 0
S. Flatsedge plant response rating [10, 36]: 0
Crabgrass plant response rating [11, 22]: 0
Crabgrass plant response rating [11, 23]: 0
Crabgrass plant response rating [11, 24]: 3
Crabgrass plant response rating [11, 25]: 0
Crabgrass plant response rating [11, 28]: 2
Plant response rating (0 to 10; 0 is no effect, 10 is complete control), Crabgrass ([11]; Rate 250 g/ha, Postemergence): 0
Wheat plant response rating [12, 29]: 0
Wheat plant response rating [12, 30]: 0
Wheat plant response rating [12, 31]: 2
Wheat plant response rating [12, 32]: 0
Wild oats plant response rating [13, 29]: 0
Wild oats plant response rating [13, 30]: 2
Wild oats plant response rating [13, 31]: 5
Wild oats plant response rating [13, 32]: 4
Giant foxtail plant response rating [14, 22]: 0
Giant foxtail plant response rating [14, 23]: 2
Giant foxtail plant response rating [14, 24]: 7
Giant foxtail plant response rating [14, 25]: 0
Giant foxtail plant response rating [14, 28]: 7
Plant response rating (0 to 10; 0 is no effect, 10 is complete control), Giant foxtail ([14]; Rate 250 g/ha, Postemergence): 0
Cocklebur plant response rating [15, 22]: 0
Cocklebur plant response rating [15, 23]: 0
Cocklebur plant response rating [15, 24]: 0
Cocklebur plant response rating [15, 25]: 0
Cocklebur plant response rating [15, 26]: 0
Cocklebur plant response rating [15, 27]: 0
Cocklebur plant response rating [15, 28]: 0
Plant response rating (0 to 10; 0 is no effect, 10 is complete control), Cocklebur ([15]; Rate 250 g/ha, Postemergence): 0
Sugarbeets plant response rating [16, 29]: 0
Sugarbeets plant response rating [16, 30]: 0
Sugarbeets plant response rating [16, 31]: 1
Sugarbeets plant response rating [16, 32]: 0
Barnyardgrass plant response rating [17, 33]: 0
Barnyardgrass plant response rating [17, 34]: 0
Barnyardgrass plant response rating [17, 35]: 0
Barnyardgrass plant response rating [17, 36]: 0
Rice plant response rating [18, 33]: 0
Rice plant response rating [18, 34]: 0
Rice plant response rating [18, 35]: 0
Rice plant response rating [18, 36]: 1
B. signalgrass plant response rating [19, 22]: 0
B. signalgrass plant response rating [19, 23]: 0
B. signalgrass plant response rating [19, 24]: 5
B. signalgrass plant response rating [19, 25]: 0
B. signalgrass plant response rating [19, 26]: 0
B. signalgrass plant response rating ([19]; Rate 125 g/ha, Postemergence, scale 0 (no effect) to 10 (complete control)): 0
B. signalgrass plant response rating [19, 28]: 0
Plant response rating (0 to 10; 0 is no effect, 10 is complete control), B. signalgrass ([19]; Rate 250 g/ha, Postemergence): 0
Ducksalad plant response rating [20, 33]: 0
Ducksalad plant response rating [20, 34]: 0
Ducksalad plant response rating [20, 35]: 0
Ducksalad plant response rating [20, 36]: 0
Soybean plant response rating [21, 29]: 0
Soybean plant response rating [21, 30]: 0
Soybean plant response rating [21, 31]: 3
Soybean plant response rating [21, 32]: 0
